The values below come from paper PMC5218480 (PLoS ONE, 2017).

The test system of the assay is MV-4-11 cells. As to the kind of experiment: Gene expression microarray analysis (Affymetrix PrimeView) and GSEA. As to conditions: MV-4-11 cells, 48 hours. More on the design: RFU PODN (11730768_x_at) / Fold change /veh PODN (11730768_x_at) / RFU LINC00158 (11744669_a_at) / Fold change /veh LINC00158 (11744669_a_at) / RFU DUSP10 (11751237_a_at) / Fold change /veh DUSP10 (11751237_a_at) / RFU ID3 (11757404_x_at) / Fold change /veh ID3 (11757404_x_at) / RFU PLEKHG5 (11737974_s_at) / Fold change /veh PLEKHG5 (11737974_s_at) / RFU LRRC4B (11730491_at) / Fold change /veh LRRC4B (11730491_at) / RFU GIMAP4 (11747438_a_at) / Fold change /veh GIMAP4 (11747438_a_at) / RFU KRT8 (11758183_x_at) / Fold change /veh KRT8 (11758183_x_at) / RFU CNN1 (11734310_a_at) / Fold change /veh CNN1 (11734310_a_at) / RFU VPS37D (11726825_at) / Fold change /veh VPS37D (11726825_at) / RFU C10orf10 (11716522_x_at) / Fold change /veh C10orf10 (11716522_x_at) / RFU KIR2DL2 /// KIR2DL4 /// KIR2DL5A /// KIR2DL5B /// KIR2DS1 /// KIR2DS2 /// KIR2DS3 /// KIR2DS4 /// KIR3DL3 /// KIR3DL3 /// KIR3DS1 (11738374_at) / Fold change /veh KIR2DL2 /// KIR2DL4 /// KIR2DL5A /// KIR2DL5B /// KIR2DS1 /// KIR2DS2 /// KIR2DS3 /// KIR2DS4 /// KIR3DL3 /// KIR3DL3 /// KIR3DS1 (11738374_at) / RFU C1QL1 (11718748_at) / Fold change /veh C1QL1 (11718748_at) / RFU TMPRSS4 (11747572_a_at) / Fold change /veh TMPRSS4 (11747572_a_at) / RFU HAMP (11756126_x_at) / Fold change /veh HAMP (11756126_x_at) / RFU RNFT2 (11725882_a_at) / Fold change /veh RNFT2 (11725882_a_at) / RFU NR4A2 (11747474_a_at) / Fold change /veh NR4A2 (11747474_a_at) / RFU ABCC12 (11746883_a_at) / Fold change /veh ABCC12 (11746883_a_at) / RFU TMEM136 (11760407_x_at) / Fold change /veh TMEM136 (11760407_x_at) / RFU CLDN22 /// WWC2 (11732394_at) / Fold change /veh CLDN22 /// WWC2 (11732394_at) / RFU HLA-DPB1 (11760878_x_at) / Fold change /veh HLA-DPB1 (11760878_x_at) / RFU SPINT1 (11716480_a_at) / Fold change /veh SPINT1 (11716480_a_at) / RFU GAP43 (11754022_s_at) / Fold change /veh GAP43 (11754022_s_at) / RFU A4GNT (11735810_at) / Fold change /veh A4GNT (11735810_at) / RFU PRB3 (11715151_x_at) / Fold change /veh PRB3 (11715151_x_at) / RFU TUBB4B (11761932_at) / Fold change /veh TUBB4B (11761932_at) / RFU CAPN14 (11732068_a_at) / Fold change /veh CAPN14 (11732068_a_at) / RFU TMCC2 (11721928_a_at) / Fold change /veh TMCC2 (11721928_a_at) / RFU IRGQ (11745062_a_at) / Fold change /veh IRGQ (11745062_a_at) / RFU FAM174B (11720279_a_at) / Fold change /veh FAM174B (11720279_a_at) / RFU TMPRSS4 (11748680_a_at) / Fold change /veh TMPRSS4 (11748680_a_at) / RFU FAM212B (11763350_a_at) / Fold change /veh FAM212B (11763350_a_at) / RFU PLEKHG5 (11743358_a_at) / Fold change /veh PLEKHG5 (11743358_a_at) / RFU ZSCAN30 (11745921_a_at) / Fold change /veh ZSCAN30 (11745921_a_at) / RFU CMKLR1 (11741424_a_at) / Fold change /veh CMKLR1 (11741424_a_at) / RFU LOC101060620 /// MAPK8IP1 (11723275_at) / Fold change /veh LOC101060620 /// MAPK8IP1 (11723275_at) / RFU SPTSSB (11747773_x_at) / Fold change /veh SPTSSB (11747773_x_at) / RFU PRSS12 (11739890_at) / Fold change /veh PRSS12 (11739890_at) / RFU BIN1 (11741810_x_at) / Fold change /veh BIN1 (11741810_x_at) / RFU WNT11 (11732464_a_at) / Fold change /veh WNT11 (11732464_a_at) / RFU C10orf10 (11716521_a_at) / Fold change /veh C10orf10 (11716521_a_at) / RFU C5orf56 (11738089_at) / Fold change /veh C5orf56 (11738089_at) / RFU CYB561 (11721691_x_at) / Fold change /veh CYB561 (11721691_x_at) / RFU ANKRD19P (11752326_a_at) / Fold change /veh ANKRD19P (11752326_a_at) / RFU OR2T12 /// OR2T33 /// OR2T8 (11738714_s_at) / Fold change /veh OR2T12 /// OR2T33 /// OR2T8 (11738714_s_at) / RFU VCAN (11748164_a_at) / Fold change /veh VCAN (11748164_a_at) / RFU JSRP1 (11732532_at) / Fold change /veh JSRP1 (11732532_at) / RFU KRTAP10-11 (11738290_x_at) / Fold change /veh KRTAP10-11 (11738290_x_at) / RFU MYO3A (11730013_a_at) / Fold change /veh MYO3A (11730013_a_at) / RFU EBF3 (11725865_a_at) / Fold change /veh EBF3 (11725865_a_at) / RFU CAMK2N1 (11719241_x_at) / Fold change /veh CAMK2N1 (11719241_x_at) / RFU C5orf56 (11738088_a_at) / Fold change /veh C5orf56 (11738088_a_at) / RFU OLFML3 (11715873_a_at) / Fold change /veh OLFML3 (11715873_a_at) / RFU LOC100653217 /// NTM (11731650_a_at) / Fold change /veh LOC100653217 /// NTM (11731650_a_at) / RFU MAPK11 (11762145_a_at) / Fold change /veh MAPK11 (11762145_a_at) / RFU FIZ1 (11724087_x_at) / Fold change /veh FIZ1 (11724087_x_at) / RFU OASL (11726364_x_at) / Fold change /veh OASL (11726364_x_at) / RFU SOX15 (11748057_x_at) / Fold change /veh SOX15 (11748057_x_at) / RFU CD79A (11719716_a_at) / Fold change /veh CD79A (11719716_a_at) / RFU HIST1H1D (11736915_at) / Fold change /veh HIST1H1D (11736915_at) / RFU CASKIN2 (11723855_a_at) / Fold change /veh CASKIN2 (11723855_a_at) / RFU LOC730098 (11760151_x_at) / Fold change /veh LOC730098 (11760151_x_at) / RFU OR4N2 (11742367_at) / Fold change /veh OR4N2 (11742367_at) / RFU PRRT2 (11749266_a_at) / Fold change /veh PRRT2 (11749266_a_at) / RFU SNX32 (11753110_a_at) / Fold change /veh SNX32 (11753110_a_at) / RFU CDHR5 (11726645_a_at) / Fold change /veh CDHR5 (11726645_a_at) / RFU RCAN1 (11760418_a_at) / Fold change /veh RCAN1 (11760418_a_at) / RFU FAM167A (11723789_a_at) / Fold change /veh FAM167A (11723789_a_at) / RFU FAM26E (11764081_at) / Fold change /veh FAM26E (11764081_at) / RFU ISYNA1 (11749810_s_at) / Fold change /veh ISYNA1 (11749810_s_at) / RFU ACY1 (11761880_at) / Fold change /veh ACY1 (11761880_at) / RFU 11764098_at / Fold change /veh 11764098_at / RFU SAMD14 (11745864_x_at) / Fold change /veh SAMD14 (11745864_x_at) / RFU NPB (11741838_a_at) / Fold change /veh NPB (11741838_a_at) / RFU TMPRSS6 (11731388_a_at) / Fold change /veh TMPRSS6 (11731388_a_at) / RFU KRTAP10-2 (11738614_at) / Fold change /veh KRTAP10-2 (11738614_at) / RFU ARHGAP8 /// PRR5-ARHGAP8 (11727945_x_at) / Fold change /veh ARHGAP8 /// PRR5-ARHGAP8 (11727945_x_at) / RFU KRTAP5-7 /// NADSYN1 (11734609_at) / Fold change /veh KRTAP5-7 /// NADSYN1 (11734609_at) / RFU RASL12 (11751679_a_at) / Fold change /veh RASL12 (11751679_a_at) / RFU CDKN2B (11736163_a_at) / Fold change /veh CDKN2B (11736163_a_at) / RFU PRF1 (11729649_at) / Fold change /veh PRF1 (11729649_at) / RFU, ZNF638 /// ZNF638-IT1 / Fold change vs veh, ZNF638 /// ZNF638-IT1 / RFU, PANK3 / Fold change vs veh, PANK3 / RFU, SH3YL1 / Fold change vs veh, SH3YL1 / RFU, ZEB2 / Fold change vs veh, ZEB2 / RFU, NRIP1 / Fold change vs veh, NRIP1 / RFU, PTTG1IP / Fold change vs veh, PTTG1IP / RFU, CAPN2 / Fold change vs veh, CAPN2 / RFU, MED14 / Fold change vs veh, MED14 / RFU, SNORA58 / Fold change vs veh, SNORA58 / RFU, C1orf63 / Fold change vs veh, C1orf63 / RFU, LRRFIP1 / Fold change vs veh, LRRFIP1 / RFU, NDUFAF7 / Fold change vs veh, NDUFAF7 / RFU, SLC12A2 / Fold change vs veh, SLC12A2 / RFU, IBTK / Fold change vs veh, IBTK / RFU, ESF1 / Fold change vs veh, ESF1 / Fold change vs veh, TMEM50B / RFU, TAOK1 / Fold change vs veh, TAOK1 / RFU, ACBD3 / Fold change vs veh, ACBD3 / RFU, TMA16 / Fold change vs veh, TMA16 / RFU, RWDD3 / Fold change vs veh, RWDD3 / RFU, BCAT1 / Fold change vs veh, BCAT1 / RFU, EDEM3 / Fold change vs veh, EDEM3 / RFU, TMEM33 / Fold change vs veh, TMEM33 / RFU, WDR75 / Fold change vs veh, WDR75 / RFU, AHCTF1 / Fold change vs veh, AHCTF1 / RFU, TFRC / Fold change vs veh, TFRC / RFU, ZDHHC17 / Fold change vs veh, ZDHHC17 / RFU, NOM1 / Fold change vs veh, NOM1 / RFU, ARL8B / Fold change vs veh, ARL8B / RFU, ZBTB11 / Fold change vs veh, ZBTB11 / RFU, TAMM41 / Fold change vs veh, TAMM41 / RFU, KIAA1704 /// LOC100996395 / Fold change vs veh, KIAA1704 /// LOC100996395 / RFU, ING1 / Fold change vs veh, ING1 / RFU, TRMT61B / Fold change vs veh, TRMT61B / RFU, FUBP3 / Fold change vs veh, FUBP3 / RFU, TP53 / Fold change vs veh, TP53 / RFU, TNKS2 / Fold change vs veh, TNKS2 / RFU, ZFP14 / Fold change vs veh, ZFP14 / RFU, ACTR2 / Fold change vs veh, ACTR2 / RFU, PPP3R1 / Fold change vs veh, PPP3R1 / RFU, PIK3R1 / Fold change vs veh, PIK3R1 / RFU, HNRNPA1 / Fold change vs veh, HNRNPA1 / RFU, RNF170 / Fold change vs veh, RNF170 / RFU, ZNF28 / Fold change vs veh, ZNF28 / RFU, RNGTT / Fold change vs veh, RNGTT / RFU, OGT / Fold change vs veh, OGT / RFU, BRD1 / Fold change vs veh, BRD1 / RFU, MARS / Fold change vs veh, MARS / RFU, ZNF655 / Fold change vs veh, ZNF655 / RFU, FAHD1 / Fold change vs veh, FAHD1 / RFU, BDP1 / Fold change vs veh, BDP1 / RFU, LRRCC1 / Fold change vs veh, LRRCC1 / RFU, ARID1A / Fold change vs veh, ARID1A / RFU, ZNF146 / Fold change vs veh, ZNF146 / RFU, ZNF330 / Fold change vs veh, ZNF330 / RFU, GPN3 / Fold change vs veh, GPN3 / RFU, C9orf123 / Fold change vs veh, C9orf123 / RFU, N4BP2L2 / Fold change vs veh, N4BP2L2 / RFU, ARFIP1 / Fold change vs veh, ARFIP1 / RFU, FAM179B / Fold change vs veh, FAM179B / RFU, BCL10 / Fold change vs veh, BCL10 / RFU, UHRF1BP1L / Fold change vs veh, UHRF1BP1L / RFU, BET1 / Fold change vs veh, BET1 / RFU, CNOT2 / Fold change vs veh, CNOT2 / RFU, ZNF268 / Fold change vs veh, ZNF268 / Fold change vs veh, ZNF507 / RFU, DGCR2 / Fold change vs veh, DGCR2 / RFU, WDSUB1 / Fold change vs veh, WDSUB1 / Fold change vs veh, HSP90B1 /// MIR3652 / RFU, ADSS / Fold change vs veh, ADSS / RFU, GK / Fold change vs veh, GK / RFU, ZNF148 / Fold change vs veh, ZNF148 / RFU, TAF9 / Fold change vs veh, TAF9 / RFU, SLC1A5 / Fold change vs veh, SLC1A5 / RFU, SLMO2 / Fold change vs veh, SLMO2 / RFU, ABCC4 / Fold change vs veh, ABCC4 / RFU, LOC101060439 /// RAP1B / Fold change vs veh, LOC101060439 /// RAP1B / RFU, RFX7 / Fold change vs veh, RFX7 / RFU, GTPBP10 / Fold change vs veh, GTPBP10 / RFU, CNEP1R1 / Fold change vs veh, CNEP1R1 / RFU, BIVM-ERCC5 /// ERCC5 / Fold change vs veh, BIVM-ERCC5 /// ERCC5 / RFU, ILF3 / Fold change vs veh, ILF3 / RFU 11762660_at / Fold change /veh 11762660_at / RFU VCAN (11757783_s_at) / Fold change /veh VCAN (11757783_s_at) / RFU DDX43 (11728927_at) / Fold change /veh DDX43 (11728927_at) / RFU KRT8 (11758188_x_at) / Fold change /veh KRT8 (11758188_x_at) / RFU NKD1 (11759106_at) / Fold change /veh NKD1 (11759106_at) / RFU SRD5A1 (11742802_a_at) / Fold change /veh SRD5A1 (11742802_a_at) / RFU TPSAB1 /// TPSB2 (11721975_s_at) / Fold change /veh TPSAB1 /// TPSB2 (11721975_s_at) / RFU GSTM3 (11746129_a_at) / Fold change /veh GSTM3 (11746129_a_at) / RFU IL23R (11737362_x_at) / Fold change /veh IL23R (11737362_x_at) / RFU TMEM51 (11727254_a_at) / Fold change /veh TMEM51 (11727254_a_at) / RFU PIWIL2 (11732686_x_at) / Fold change /veh PIWIL2 (11732686_x_at) / RFU ORM1 (11744905_x_at) / Fold change /veh ORM1 (11744905_x_at) / RFU CCDC152 (11743942_at) / Fold change /veh CCDC152 (11743942_at) / RFU ECM1 (11717891_a_at) / Fold change /veh ECM1 (11717891_a_at) / RFU IL23R (11748794_a_at) / Fold change /veh IL23R (11748794_a_at) / RFU TNFAIP8L3 (11732012_x_at) / Fold change /veh TNFAIP8L3 (11732012_x_at) / RFU MBOAT4 (11741988_at) / Fold change /veh MBOAT4 (11741988_at) / RFU 11764193_at / Fold change /veh 11764193_at / RFU TMEM53 (11763286_at) / Fold change /veh TMEM53 (11763286_at) / RFU MAGEB2 (11727129_at) / Fold change /veh MAGEB2 (11727129_at) / RFU TMEM200A (11744735_a_at) / Fold change /veh TMEM200A (11744735_a_at) / RFU CCDC152 (11751479_a_at) / Fold change /veh CCDC152 (11751479_a_at) / RFU FAM211A (11726209_a_at) / Fold change /veh FAM211A (11726209_a_at) / RFU RGS16 (11746705_a_at) / Fold change /veh RGS16 (11746705_a_at) / RFU VCAN (11755009_s_at) / Fold change /veh VCAN (11755009_s_at) / RFU RHOB (11743442_s_at) / Fold change /veh RHOB (11743442_s_at) / RFU RGS16 (11720943_a_at) / Fold change /veh RGS16 (11720943_a_at) / RFU RGS16 (11720944_at) / Fold change /veh RGS16 (11720944_at) / RFU, VPS4B / Fold change vs veh, VPS4B / RFU, CREB1 / Fold change vs veh, CREB1 / RFU, DNAJC13 / Fold change vs veh, DNAJC13 / RFU, GNAQ / Fold change vs veh, GNAQ / RFU, CDK5R1 / Fold change vs veh, CDK5R1 / RFU, ZRANB3 / Fold change vs veh, ZRANB3 / RFU, CUL4A / Fold change vs veh, CUL4A / RFU, CCNY / Fold change vs veh, CCNY / RFU, UFL1 / Fold change vs veh, UFL1 / RFU, COG3 / Fold change vs veh, COG3 / RFU, DIAPH2 / Fold change vs veh, DIAPH2 / RFU, SKA2 / Fold change vs veh, SKA2 / RFU, AFF3 / Fold change vs veh, AFF3 / RFU, LMF1 / Fold change vs veh, LMF1 / RFU, IPO11 / Fold change vs veh, IPO11 / RFU, DFFB / Fold change vs veh, DFFB / RFU, FOXP1 / Fold change vs veh, FOXP1 / RFU, CARD8 / Fold change vs veh, CARD8 / RFU, STRN3 / Fold change vs veh, STRN3 / RFU, ADK / Fold change vs veh, ADK / RFU, RASSF2 / Fold change vs veh, RASSF2 / RFU, WIPF1 / Fold change vs veh, WIPF1 / RFU, LARP1B / Fold change vs veh, LARP1B / RFU, RASA1 / Fold change vs veh, RASA1 / RFU, RB1 / Fold change vs veh, RB1 / RFU, PPFIA1 / Fold change vs veh, PPFIA1 / RFU, MAT2A / Fold change vs veh, MAT2A / RFU, CCT5 / Fold change vs veh, CCT5 / RFU, WDR92 / Fold change vs veh, WDR92 / RFU, CUX1 / Fold change vs veh, CUX1 / RFU, TTC7A / Fold change vs veh, TTC7A / RFU, TMEM135 / Fold change vs veh, TMEM135 / RFU, DEPTOR / Fold change vs veh, DEPTOR / RFU, CPM / Fold change vs veh, CPM / RFU, DNAJB6 / Fold change vs veh, DNAJB6 / RFU, CACNA2D3 / Fold change vs veh, CACNA2D3 / RFU, DTX4 / Fold change vs veh, DTX4 / RFU, TFCP2 / Fold change vs veh, TFCP2 / RFU, GMCL1 /// GMCL1P1 / Fold change vs veh, GMCL1 /// GMCL1P1 / RFU, AEBP2 / Fold change vs veh, AEBP2 / RFU, SNHG1 /// SNORD22 /// SNORD25 /// SNORD26 /// SNORD27 /// SNORD28 /// SNORD29 /// SNORD31 / Fold change vs veh, SNHG1 /// SNORD22 /// SNORD25 /// SNORD26 /// SNORD27 /// SNORD28 /// SNORD29 /// SNORD31 / Fold change (Aza/veh), C12orf56 (ProbeSet 11735607_a_at) / Fold change (ACY-1035/veh), C12orf56 (ProbeSet 11735607_a_at) / Fold change (Aza/veh), FGFR1OP (ProbeSet 11751329_s_at) / Fold change (ACY-1035/veh), FGFR1OP (ProbeSet 11751329_s_at) / Fold change (Aza/veh), VPS36 (ProbeSet 11739960_a_at) / Fold change (ACY-1035/veh), VPS36 (ProbeSet 11739960_a_at) / RFU SYPL1 (11715823_x_at) / Fold change /veh SYPL1 (11715823_x_at) / RFU IGFBP7 (11715501_s_at) / Fold change /veh IGFBP7 (11715501_s_at) / RFU REEP3 (11722064_at) / Fold change /veh REEP3 (11722064_at) / RFU IGLL1 (11728026_x_at) / Fold change /veh IGLL1 (11728026_x_at): dose or concentration left out as unconfirmed. Format: cell-based, human.

Take `Nc1ncn([C@@H]2O[C@H](CO)[C@@H](O)[C@H]2O)c(=O)n1` [azacitidine]: the “RFU C1QL1 (11718748_at)” value is on record as 641.97 RFU.
